This is an account of results in patent US10617664B2, “Brain derived PPARα ligands” (Rush University Medical Center, priority 2015, dated 2020).

One series addresses T1, Y464D-PPARα (Mus musculus, UniProt P23204, Y464D).
T1 construct: the entire mouse GFP-Ppara gene (GFP-FLPpara) and three different mutated genes were cloned; GFP; made in house; host or cells: not clearly stated (lentivirus packaged in HEK293FT cells)
T1 sequence (P23204 1-468 Y464D): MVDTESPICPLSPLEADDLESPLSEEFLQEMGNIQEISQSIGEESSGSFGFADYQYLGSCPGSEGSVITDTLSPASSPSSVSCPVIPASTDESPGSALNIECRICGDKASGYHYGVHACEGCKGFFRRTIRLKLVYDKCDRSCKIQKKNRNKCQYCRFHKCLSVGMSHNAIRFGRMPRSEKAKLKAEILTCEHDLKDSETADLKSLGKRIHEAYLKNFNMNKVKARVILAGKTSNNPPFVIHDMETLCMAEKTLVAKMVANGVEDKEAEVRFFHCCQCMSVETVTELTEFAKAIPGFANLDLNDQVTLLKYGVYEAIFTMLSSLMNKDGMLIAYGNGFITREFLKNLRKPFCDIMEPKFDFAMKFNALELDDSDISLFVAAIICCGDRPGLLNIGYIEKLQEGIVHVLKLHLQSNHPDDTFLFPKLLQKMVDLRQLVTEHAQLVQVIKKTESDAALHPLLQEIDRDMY
In words: Thermal shift assay, Y464D-PPARα with ligands. The class given is binding. As for the experimental part: Lentivirus-mediated de novo expression studies were performed, where wild type full-length (GFP-FLPpara) was overexpressed and three different LBD-mutated PPARα (GFP-Y314D, GFP-Y464D and GFP-Y314D/Y464D Ppara) recombinant proteins (FIG. 9D) were expressed in neurons followed by binding analyses with three endogenous ligands. Briefly, site directed mutagenesis was performed in the mouse PPARα with Y314 and Y464 residues replaced separately or together with aspartate (D). After that, the entire mouse GFP-Ppara gene (GFP-FLPpara) and three different mutated genes were cloned in the pLenti6/V5-TOPO lentiviral expression vector (FIG. 3D), packaged in lentivirus particle with HEK293FT cells, purified full length and mutated PPARα proteins in a GFP-affinity column, and finally thermal shift assays were performed in order to analyze their conformational stability. […] After 48 h of transduction, the cells were homogenized, passed through GFP-affinity column, eluted, fractionated with chloroform-methanol, and finally analyzed by GC-MS for the detection of ligands. […] On the other hand, mutation of the Y464 completely knocked down the ligand binding affinity as we observed profound loss of ligand binding in both lenti-GFP-Y464D-Ppara (FIG. 3K, FIG. 9K) and lenti-GFP-Y314D/Y464D-Ppara (FIG. 3L, FIG. 9L)-transduced Ppara-null neurons. Throughout these analyses, we used 2,4-bis (α, α-dimethyl benzyl) phenol as an internal standard (Supplementary FIG. 5A-F). We normalized peak area of different ligands with that of internal standard and then quantified the binding affinity of these ligands with different construct of PPARα by peak integration statistics (Table 1).
Thermal shift assays were performed in Applied Biosystems 7500 standard real-time thermal cycler machine with commercially available thermal shift dye kit (Life technologies; Cat #4461146). For each reaction, purified protein (0.5 μg to 1 μg) was added to 18 μL of thermal shift buffer provided with the kit, and 1-2 μL of dye. […]

In series [1] the test system is PPRE-driven luciferase activity. The series is described as follows: PPRE-luciferase assay in Pparb-null astrocytes with PPARγ antagonist GW9662. It is filed as cell-based, mouse. The note with it: for PPRE luciferase activity: Pparb-null astrocytes; for effect of GW9662 on ligand-mediated increase in PPRE-luciferase activity: Pparb-null astrocytes pre-treated with GW9662. As for the experimental part: FIG. 16A) Pparb-null primary astrocytes plated at 60-70% confluence in 12-well plates were transfected with 0.25 μg of tkPPREx3-Luc (a PPRE-dependent luciferase reporter construct). Twenty-four hours after transfection, cells were treated with different concentrations of GW9662 for 30 min followed by stimulation with rosiglitazone. After 4 h, luciferase activities were assayed. […] After transfection, cells were also treated with GW9662 followed by stimulation with OCT (FIG. 16B), HEX (FIG. 16C) and HMB (FIG. 16D).
These astrocytes were pre-treated with PPARγ-antagonist GW9662 to nullify the involvement of PPARγ in reporter assay.

For another series, the system named is astrocytes. In words: MTT cell viability in PPRE-luciferase transfected astrocytes. The class given is cell-based, mouse. Particulars: higher concentrations. As for the experimental part:
Astrocytes plated at 60-70% confluence were transfected with tk-PPREx3-Luc, a PPRE-dependent luciferase reporter construct. After 24 h of transfection, cells were treated with different concentrations of HEX (FIG. 10A), OCT (FIG. 10B) and HMB (FIG. 10C) for 4 h followed by monitoring luciferase activity. Under similar experimental condition, MTT was performed to understand the effect of these ligands on cell viability (FIG. 10D, HEX; FIG. 10E, OCT; FIG. 10F, HMB). Results are mean±SD of three independent experiments. ^ap<0.001 vs. control. Ppara-null astrocytes were transduced with lentivirions containing empty vector (FIG. 10G), FL-Ppara (FIG. 10H), Y314D-Ppara (FIG. 10I), Y464D-Ppara (FIG. 10J), and Y314D/Y464D-Ppara (FIG. 10K) for 48 h followed by transfection with tk-PPREx3-Luc. After 24 h of transfection, cells were treated with different doses of HEX, OCT and HMB for 4 h followed by monitoring luciferase activity. PPRE luciferase activity was assayed in Ppara-null astrocytes transduced with lentivirions containing empty vector (FIG. 10L), FL-Ppara (FIG. 10M), Y314D-Ppara (FIG. 10N), Y464D-Ppara (FIG. 10O), and Y314D/Y464D-Ppara (FIG. 10P) after treatment with different doses of WY14643, fenofibrate, and clofibrate. PPRE luciferase activity was assayed in primary hippocampal neurons transduced with lentivirions containing empty vector (FIG. 10Q), FL-Ppara (FIG. 10R), Y314D-Ppara (FIG. 10S), Y464D-Ppara (FIG. 10T), and Y314D/Y464D-Ppara (FIG. 10U) after treatment with different doses of HEX, OCT and HMB. Results are mean±SD of three independent experiments. ^ap<0.001 vs. control.

Regarding `CCCCCCCCC=CCCCCCCCC(N)=O` [OCT, 9-octadecenamide], at Y464D-PPARα, the “effect on Tm of Y464D-PPARα” value is given as “did not alter the Tm”. For the same compound, in series [1], the PPRE luciferase activity entry is “markedly increased” and the “effect of GW9662 on ligand-mediated increase in PPRE-luciferase activity” value is “remained unable to inhibit”. The “cytotoxicity (MTT)” value in the series on astrocytes was “significant level of cytotoxicity”.

Regarding `CCCCCCCCCCCCCCCC(N)=O` [HEX, hexadecanamide], at Y464D-PPARα, the “effect on Tm of Y464D-PPARα” value is “did not alter the Tm”. In series [1], the PPRE luciferase activity entry is on record as “markedly increased” and the “effect of GW9662 on ligand-mediated increase in PPRE-luciferase activity” value is listed as “remained unable to inhibit”. The “cytotoxicity (MTT)” value with astrocytes was “significant level of cytotoxicity”.

Regarding `CCOC(=O)C(C)(C)C(C)O` (stereo not drawn) [HMB], the “effect on Tm of Y464D-PPARα” value on Y464D-PPARα was “did not alter the Tm”. In series [1], the PPRE luciferase activity result is “markedly increased” and the “effect of GW9662 on ligand-mediated increase in PPRE-luciferase activity” value is listed as “remained unable to inhibit”. Further, the “cytotoxicity (MTT)” value with astrocytes is “significant level of cytotoxicity”.
